For test [1], the system named is NO production by RAW264.7 cell. Description: NO production-inhibiting effect in RAW264.7 cells (nitrite ion by DAN fluorescence). The format is cell-based, mouse. The note with it: LPS 5 ng/ml + interferon gamma 1 U/ml, nitrite ion in culture supernatant after overnight incubation. The procedure: Mouse macrophage cell line RAW264.7 was used as an iNOS-inducible cell and a test compound was examined for its % inhibition of NO production. The test compound was dissolved at 10 mM in N,N-dimethylformamide and diluted with an RPMI-1640 medium at the concentration of 0.1 mM. The concentration was further adjusted using the medium so that a final concentration ranging from 10 μM to 10 nM could be obtained by a 10-fold serial dilution and the test compound was added to a culture medium. On the day before the experiment, the cell was adjusted at 5×10^5/ml in an RPMI-1640 medium supplemented with 10% inactivated fetal calf serum and inoculated to a 96-well microplate at 1×10^5 cells/0.2 ml per well. After incubating at 37° C. under an atmosphere of 5% CO2/95% air overnight, the test compound adjusted as described above was added and then LPS and interferon gamma were added at the final concentrations of 5 ng/ml and 1 U/ml, respectively. After further incubating overnight, culture supernatants were examined for the concentration of nitrite ion (stable metabolite of NO) which was used as an index for the NO production. The nitrite ion concentration was determined by adding 25 μl of 20 μg/ml of 2,3-diaminonaphthalene (DAN) to 50 μl of the culture supernatant, followed by incubating at room temperature for 10 minutes, followed by adding 25 μl of 0.5 N NaOH, followed by determining a fluorescence at 450 nm (excitation wavelength: 365 nm). An IC50 represents the concentration of the test compound which inhibits 50% of the NO production.

Test [2] has as its system IL-1α production, RAW264.7. Briefly: Cytokine production-inhibiting effect in RAW264.7: IL-1α. The format is cell-based. The note with it: Mus musculus, LPS 1.0 μg/ml in the absence of interferon gamma. The procedure: Using mouse macrophage cell line RAW264.7, a test compound was examined for its % inhibition of a cytokine production. The test compound was dissolved at 10 mM in N,N-dimethylformamide and dilutedwith an RPMI-1640 medium at the concentration of 0.1 mM. The concentration was further adjusted using the medium so that a final concentration ranging from 10 μM to 10 nM could be obtained by a 10-fold serial dilution and the test compound was added to a culture medium. On the day before the experiment, the cell was adjusted at 5×10^5/ml in an RPMI-1640 medium supplemented with 10% inactivated fetal calf serum and inoculated to a 96-well microplate at 1×10^5 cells/0.2 ml per well. After incubating at 37° C. under an atmosphere of 5% CO2/95% air overnight, the test compound adjusted as described above was added and then LPS and interferon-gamma were added at the final concentrations of 5 ng/ml and 1 U/ml, respectively. After further incubating overnight, culture supernatants were examined for the concentrations of TNF-α and IL-6. IL-1α was determined using 1.0 μg/ml of LPS in the absence of interferon gamma under otherwise similar conditions. Each cytokine was determined using an assay kit manufactured by Amersham. An IC50 represents the concentration of the test compound which inhibits 50% of the cytokine production.

The subject of test [3] is blood nitric oxide concentration (NOx). Briefly: Effect on increase in blood nitric oxide level (LPS-treated mice). The format is in vivo, BALB/c mice. Particulars: Mus musculus; 30 mg/kg orally 1 hour before LPS 10 mg/kg i.p.; serum nitrite+nitrate 6 hours after LPS; vs control group; read-out: Inhibition % of NO in blood.
Test [4] has as its system serum TNF-α. Briefly: Effect on increase in blood cytokine level (LPS-treated mice): TNF-α. Format: in vivo, BALB/c mice. The note with it: Mus musculus; 30 mg/kg orally 1 hour before LPS 10 mg/kg i.p.; serum 1 hour after LPS; vs control group. The procedure: (§1) As a result of a defense mechanism against an infection or an immune abnormality, various in vivo cytokines are produced. Accordingly, an experimental animal model was used to examine the effect of a test compound on the increase in the blood cytokine level.
(§2) Female BALB/c mice (6 weeks old) were purchased and acclimatized for 1 week and assigned to the groups in each of which 6 to 8 animals were included. In a treatment group, 30 mg/kg of a test compound suspended in a 0.5% aqueous solution of methyl cellulose was given orally. In a control group, the vehicle was given similarly. After 1 hour, LPS (10 mg/kg) was given intraperitoneally to each animal in the treatment and control groups, and the blood was taken 1 hour after the LPS administration and examined for the serum concentrations of TNF-α. IL-1α, IL-1β and IL-6 concentrations were determined using the serum from the blood taken 6 hours after the LPS administration. Each cytokine was determined using an assay kit manufactured by Amersham.

Test [5] relates to serum IL-1α. Briefly: Effect on increase in blood cytokine level (LPS-treated mice): IL-1α. The note with it: Mus musculus; 30 mg/kg orally 1 hour before LPS 10 mg/kg i.p.; serum 6 hours after LPS; vs control group. The format is in vivo, BALB/c mice. The protocol:
as §1, §2

The test system of test [6] is serum IL-1β. Briefly: Effect on increase in blood cytokine level (LPS-treated mice): IL-1β. The format is in vivo, BALB/c mice. The note with it: Mus musculus; 30 mg/kg orally 1 hour before LPS 10 mg/kg i.p.; serum 6 hours after LPS; vs control group. The procedure: as §1, §2
Test [7] concerns serum IL-6. Description: Effect on increase in blood cytokine level (LPS-treated mice): IL-6. The format is in vivo, BALB/c mice. The note with it: Mus musculus; 30 mg/kg orally 1 hour before LPS 10 mg/kg i.p.; serum 6 hours after LPS; vs control group. The procedure: as §1, §2
[8] abbreviates: Mus musculus, RAW264.7, RAW264.7.

Take `CCOC(=O)C1=CCCCC1S(=O)(=O)Nc1ccc(Cl)cc1F` (stereo not drawn) [Compound 1, ethyl 6-[N-(4-chloro-2-fluorophenyl)sulfamoyl]-1-cyclohexene-1-carboxylate]: the IC50 is 0.12 to 0.32 µM in test [1] (setting [8]) and 0.39 µM in test [2]. Besides, the inhibition at 30 mg/kg came out at 76% in test [3]; 98% in test [4]; 97% in test [5]; 73% in test [6]; 89% in test [7].

Regarding `CCOC(=O)C1=CCCCC1S(=O)(=O)Nc1ccc(F)cc1F` (stereo not drawn) [Compound 3, ethyl 6-[N-(2,4-difluorophenyl)sulfamoyl]-1-cyclohexene-1-carboxylate], the IC50 in test [1] (RAW264.7) lay in the range of 0.013 to 0.039 µM. The inhibition at 30 mg/kg in test [3] is 90%.

`CCOC(=O)C1=CCCCC1S(=O)(=O)Nc1ccc(C#N)cc1Cl` (stereo not drawn) [Compound 55, ethyl 6-[N-(2-chloro-4-cyanophenyl)sulfamoyl]-1-cyclohexene-1-carboxylate]: in test [1] (setting [8]), the concentration for half-maximal inhibition (IC50) was found to be 3.3 µM.

Turning to `O=C(OCCO)C1=CCCCC1S(=O)(=O)Nc1ccc(F)cc1F` (stereo not drawn) [Compound 56, 2-hydroxyethyl 6-[N-(2,4-difluorophenyl)sulfamoyl]-1-cyclohexene-1-carboxylate], in test [1] (setting [8]), the 50% inhibitory concentration (IC50) stood at 1 µM.

As to `CCOC(=O)C1=CCCCC1S(=O)(=O)Nc1ccc(-n2cncn2)cc1F` (stereo not drawn) [Compound 57, ethyl 6-[N-[2-fluoro-4-(IH-1,2,4-triazol-1-yl)phenyl)sulfamoyl]-1-cyclohexene-1-carboxylate], the IC50 in test [1] (RAW264.7) was 4.6 µM.

For the compound `CCOC(=O)C1=CCCC1S(=O)(=O)Nc1ccc(F)cc1F` (stereo not drawn) [Compound 58, ethyl 5-[N-(2,4-difluorophenyl)sulfamoyl]-1-cyclopentene-1-carboxylate], the 50% inhibitory concentration (IC50) in test [1] (setting [8]) came to 0.39 µM.

`CC(C)(C)OC(=O)COC(=O)C1=CCCCC1S(=O)(=O)Nc1ccc(F)cc1F` (stereo not drawn) [Compound 59, t-butyl [6-[N-(2,4-difluorophenyl)sulfamoyl]-1-cyclohexen-1-yl]carbonyloxyacetate]: the IC50 in test [1] (setting [8]) came out at 0.54 µM.

Turning to `O=C(O)COC(=O)C1=CCCCC1S(=O)(=O)Nc1ccc(F)cc1F` (stereo not drawn) [Compound 60, [6-[N-(2,4-difluorophenyl)sulfamoyl]-1-cyclohexen-1-yl]carbonyloxyacetic acid], the IC50 in test [1] (setting [8]) came to 7.9 µM.

As to `CCOC(=O)C1=CCCCCC1S(=O)(=O)Nc1ccc(F)cc1F` (stereo not drawn) [Compound 61, ethyl 7-[N-(2,4-difluorophenyl)sulfamoyl]-1-cycloheptene-1-carboxylate], the IC50 in test [1] (setting [8]) came out at 2.8 µM.

As to `CCOC(=O)C1=CCCCC1S(=O)(=O)Nc1ccc(C(=O)NCC(=O)OC(C)(C)C)cc1Cl` (stereo not drawn) [Compound 62, ethyl 6-[N-[2-chloro-4-(N-t-butoxycarbonylmethylcarbamoyl)phenyl]sulfamoyl]-1-cyclohexene-1-carboxylate], the IC50 in test [1] (setting [8]) is 3.8 µM.

In the case of `CCOC(=O)CNC(=O)c1ccc(NS(=O)(=O)C2CCCC=C2C(=O)OCC)c(Cl)c1` (stereo not drawn) [Compound 63, ethyl 6-[N-[2-chloro-4-(N-ethoxycarbonylmethylcarbamoyl)phenyl]sulfamoyl]-1-cyclohexene-1-carboxylate], in test [1] (setting [8]), the half-maximal inhibitory concentration (IC50) is 8.4 µM.

On to `CCOC(=O)C1=CCCC1S(=O)(=O)Nc1ccc(F)cc1Cl` (stereo not drawn) [Compound 64, ethyl 5-[N-(2-chloro-4-fluorophenyl)sulfamoyl]-1-cyclopentene-1-carboxylate], for which, in test [1] (setting [8]), the IC50 came out at 0.25 µM.

Consider `CCOC(=O)C1=CCCCCC1S(=O)(=O)Nc1ccc(F)cc1Cl` (stereo not drawn) [Compound 65, ethyl 7-[N-(2-chloro-4-fluorophenyl)sulfamoyl]-1-cycloheptene-1-carboxylate], for which the IC50 in test [1] (setting [8]) is 0.32 µM.

As for `CCOC(=O)C1=C(S(=O)(=O)Nc2ccc(F)cc2F)CCC1` [Compound 66, ethyl 2-[N-(2,4-difluorophenyl)sulfamoyl]-1-cyclopentene-1-carboxylate], the concentration for half-maximal inhibition (IC50) in test [1] (setting [8]) stood at 8.1 µM.

For `COc1ccc(N2C(=O)C3=C(CCCC3)S2(=O)=O)cc1` [Compound 67, 2-(4-methoxyphenyl)-4,5,6,7-tetrahydro-1,2-benzoisothiazole-3(2H)-one 1,1-dioxide], the IC50 in test [1] (setting [8]) worked out at 6 µM.

As for `O=C1C2=C(CCCC2)S(=O)(=O)N1c1ccc(F)cc1` [Compound 68, 2-(4-fluorophenyl)-4,5,6,7-tetrahydro-1,2-benzoisothiazol-3(2H)-one 1,1-dioxide], the IC50 in test [1] (setting [8]) was determined as 5.1 µM.

For the compound `O=C1C2=C(CCCC2)S(=O)(=O)N1c1ccc(OCC(F)(F)C(F)(F)F)cc1` [Compound 69, 2-[4-(2,2,3,3,3-pentafluoropropoxy)phenyl]-4,5,6,7-tetrahydro-1,2-benzisothiazol-3(2H)-one 1,1-dioxide], in test [1] (setting [8]), the IC50 was determined as 6.8 µM.

Turning to `O=C1C2=CCCCC2S(=O)(=O)N1c1ccc(F)cc1F` (stereo not drawn) [Compound 70, 2-(2,4-difluorophenyl)-5,6,7,7a-tetrahydro-1,2-benzoisothiazol-3(2H)-one 1,1-dioxide], the IC50 in test [1] (setting [8]) came to 0.35 µM.

With “d-ethyl 6-[N-(2,4-difluorophenyl)sulfamoyl]-1-cyclohexene-1-carboxylate [Compound 20]”, the IC50 in test [1] (RAW264.7) was 0.005 µM.

Take “ethyl 6-[N-3-fluorophenyl]sulfamoyl)-1-cyclohexene-1-carboxylate [Compound 11]”: the IC50 in test [1] (RAW264.7) was 0.31 µM.

In general, IC50 refers to the concentration at which inhibition is half-maximal. As a reminder, the inhibition is how much of the control response was suppressed.

The values are drawn from patent publication US6495604B1, “Cycloalkene derivatives, process for producing the same, and use” (Takeda Chemical Industries, Ltd., priority 1998, dated 2002).
